Publication PMC6271077, “Synthesis, Anticancer and Antibacterial Activity of Salinomycin N-Benzyl Amides” (Molecules, 2014)
Like-named read-outs stand apart in the source and are kept apart here.

How the values were obtained:
[1] = tested on: HL-60; assay: Antiproliferative MTT assay, HL-60; format: cell-based, human; conditions: for IC50: 72 h, MTT, mean ± SD, NA: not active in concentrations used (up to 100 µg/mL), read-out: IC50 HL-60; for SI HL-60: SI = IC50 BALB/3T3 / IC50 HL-60
From the text: (§1) Four human cancer cell lines and one normal cell line were used to evaluate anticancer activity of SAL and its N-benzyl amides: human acute promyelocytic leukemia (HL-60) and its vincristine resistant subline (HL-60/vinc), human colon adenocarcinoma cell lines sensitive (LoVo) and resistant to doxorubicin (LoVo/dx) as well as also normal murine embryonic fibroblast cell line (BALB/3T3). The BALB/3T3 cell line was purchased from the American Type Culture Collection (ATCC Rockville, MD, USA), HL-60 cell line from European Type Culture Collection by courtesy of Professor Spik and Dr Mazurier (Laboratory of Biological Chemistry USTL, Lille, France) and HL-60/vinc, LoVo and LoVo/dx by courtesy of Prof. E. Borowski (Technical University of Gdańsk, Gdańsk, Poland). All the cell lines are maintained in the Institute of Immunology and Experimental Therapy (IIET), Wrocław, Poland.
(§2) Human leukemia cells were cultured in ISCOVE medium (IIET, Wroclaw, Polond) containing 10% fetal bovine serum and 2 mM L-glutamine (Sigma Aldrich) and 1 µg/100 mL […] for HL-60/vinc (Sigma Aldrich). Human colon adenocarcinoma cell lines were cultured in mixture of OptiMEM and RPMI 1640 (1:1) medium (IIET) supplemented with 5% fetal bovine serum (Thermo Fisher Scientific, Waltham, MA, USA), 2 mM L-glutamine, 1 mM sodium pyruvate (Sigma Aldrich) and 10 µg/100 mL doxorubicin for LoVo/dx (Sigma Aldrich). Murine embryonic fibroblast cells were cultured in Dulbecco medium (Gibco, Darmstadt, Germany) supplemented with 10% fetal bovine serum (Thermo Fisher Scientific) and 2 mM L-glutamine (Sigma Aldrich). All culture media contained antibiotics: 100 U/mL penicillin (Sigma Aldrich) and 100 µg/mL streptomycin (Polfa-Tarchomin, City, Poland). All cell lines were cultured during entire experiment in humid atmosphere at 37 °C and 5% CO2.
(§3) Twenty four hours before adding the tested compounds all cell lines were seeded in 96-well plates (Sarstedt, Nümbrecht, Germany) in appropriate media with 10^4 cells per well. All cell lines were exposed to each tested agent at four different concentrations from the range 100 to 0.1 µg/mL for 72 h. The cells were also exposed to the reference drugs: cisplatin (Accord, London, UK) and doxorubicin hydrochloride (Fluka, St. Louis, MO, USA). Additionally, all cell lines were exposed to DMSO (the solvent used for tested compounds, Sigma Aldrich) at the concentrations corresponding to those in the tested agent dilutions. For adherent cells sulphorodamine B assay was performed and MTT assay for leukemia cells.
(§4) Proliferation inhibition of leukemia cells by tested compounds was measured by means of MTT assay. Thus, 20 µL of 3-(4,5-dimethylthiazol-2-yl)-2,5-diphenyl tetrazolium bromide solution (Sigma Aldrich) were added to each well and plates were left in cell incubator for 4 h to allow the cells to metabolize yellow MTT to blue formazan. Then, the lysing mixture consisting of 225 mL dimethylformamide, 67.5 g sodium dodecyl sulfate (both from Sigma Aldrich) and 275 mL of distilled water was added in 80 µL volume per well. Plates were incubated for 24 h for the formazan crystals to be released from cells, dissolved and then absorbance of each well was read at Synergy H4 photometer (BioTek Instruments) at 570 nm wavelength.
(§5) Results are presented as mean IC50 (concentration of the tested compound that inhibits cell proliferation by 50%) ± standard deviation. IC50 values were calculated in Cheburator 1.0.2, Dmitry Nevozhay software for each experiment. Compounds at each concentration were tested in triplicates in single experiment and each experiment was repeated at least three times independently. The IR was defined as the ratio of IC50 for a given compound calculated for resistant cell line to that measured for its parental drug sensitive cell line (Table 4).

[2] = tested on: BALB/3T3; assay: Antiproliferative SRB assay, normal fibroblasts BALB/3T3; format: cell-based; conditions: 72 h, mean ± SD, read-out: IC50 BALB/3T3 (normal cells)
From the text: as §1, with “Poland. […]” for “Poland.”
After 72 h of incubation with tested compounds the cells were fixed in situ by gently adding of 50 µL per well of cold 50% trichloroacetic acid TCA (Avantor Performance Materials, City, Poland) and were incubated at 4 °C for 1 h. […] Absorbance of each solution was read at Synergy H4 photometer (BioTek Instruments, Winooski, VT, USA) at 540 nm wavelength. […]

[3] = tested on: LoVo; assay: Antiproliferative SRB assay, LoVo; format: cell-based, human; conditions: for IC50: 72 h, SRB, mean ± SD, read-out: IC50 LoVo; for SI LoVo: SI = IC50 BALB/3T3 / IC50 LoVo
From the text: as §1, §2, §3
(§6) After 72 h of incubation with tested compounds the cells were fixed in situ by gently adding of 50 µL per well of cold 50% trichloroacetic acid TCA (Avantor Performance Materials, City, Poland) and were incubated at 4 °C for 1 h. Then the wells were washed four times with water and air-dried. Next, 50 µL of 0.2% solution of sulphorodamine B (Sigma Aldrich) in 1% acetic acid (Avantor Performance Materials) were added to each well and plates were incubated at room temperature for 0.5 h. After incubation time, unbound dye was removed by washing plates four times with 1% acetic acid, whereas the stain bound to cells was solubilized with 150 µL of 10 mM Tris base (Sigma Aldrich). Absorbance of each solution was read at Synergy H4 photometer (BioTek Instruments, Winooski, VT, USA) at 540 nm wavelength.
as §5

[4] = tested on: LoVo/dx; assay: Antiproliferative SRB assay, LoVo/dx; format: cell-based, human; conditions: for IC50: doxorubicin resistant subline, 72 h, SRB, mean ± SD, read-out: IC50 LoVo/dx; for IR LoVo/DX: IR = IC50 LoVo/dx / IC50 LoVo; for SI LoVo/DX: SI = IC50 BALB/3T3 / IC50 LoVo/dx
From the text: as §1, §2, §3, §6, §5

[5] = tested on: HL-60/vinc; assay: Antiproliferative MTT assay, HL-60/vinc; format: cell-based, human; conditions: for IC50: vincristine-resistant subline, 72 h, MTT, mean ± SD, NA: not active in concentrations used (up to 100 µg/mL), read-out: IC50 HL-60/vinc; for IR HL-60/vinc: IR = IC50 HL-60/vinc / IC50 HL-60; for SI HL-60/vinc: SI = IC50 BALB/3T3 / IC50 HL-60/vinc
From the text: as §1, §2, §3, §4, §5

Structure (SMILES) | IC50 ([1]; Homo sapiens, HL-60) [nM] | SI HL-60 [1] | IC50 ([2]; Mus musculus, BALB/3T3, normal murine embryonic fibroblasts) [nM] | IC50 ([3]; Homo sapiens, LoVo) [nM] | SI LoVo [3] | IC50 ([4]; Homo sapiens, LoVo/DX) [µM] | IR LoVo/DX [4] | SI LoVo/DX [4] | IC50 ([5]; Homo sapiens, HL60/vinc) [µM] | IR HL-60/vinc [5] | SI HL-60/vinc [5] | IC50 [1] [nM] | IC50 ([2]; normal murine embryonic fibroblasts) [nM] | IC50 [3] [nM] | IC50 [4] [µM] | IC50 [5] [µM]
COc1cccc2c1C(=O)c1c(O)c3c(c(O)c1C2=O)C[C@@](O)(C(=O)CO)C[C@@H]3O[C@H]1C[C@H](N)[C@H](O)[C@H](C)O1 [doxorubicin, reference compound] | 40 ± 40 | 4.50 | 180 ± 70 | 150 ± 60 | 1.20 | 5.46 ± 1.56 | 36.40 | 0.03 | 0.88 ± 0.26 | 22.00 | 0.20 |  |  |  |  | 
N.N.[Cl][Pt][Cl] [cisplatin, reference compound] |  | 5.30 |  |  | 1.43 |  | 1.41 | 1.02 |  | 6.87 | 0.77 | 1000 ± 230 | 5300 ± 2930 | 3700 ± 1200 | 5.2 ± 1.93 | 6.87 ± 1.63
